Source: US20170313828A1, “IN SITU-FORMING OF DENDRIMER HYDROGELS USING MICHAEL-ADDITION REACTION” (Virginia Commonwealth University, priority 2016, published 2017)

Assay: In vitro 5-FU release kinetics
Assay type: physicochemical
Settings: from hydrogel of 1 wt % PAMAM G5-(NH2)128 and PEG diacrylate575 (FIG. 9)
Description: In Vitro Drug Release Kinetics. Drug release was performed on 5-FU loaded into DH-G5-0.5% (5-FU/DH-G5-0.5%). Briefly, Free 5-FU (300 μg) in PBS or DH-G5-0.5% containing 300 μg of 5-FU was transferred to dialysis bags (MWCO=500-1000 Da) and suspended in 30 mL of PBS in 50-mL centrifuge tubes. The tubes were maintained at 37° C. At predetermined time intervals up to 24 h, 1 mL of medium outside the dialysis bag was withdrawn, and the amount of drug released into the medium was analyzed on HPLC against a standard curve of 5-FU. After each sampling, 1 mL of fresh PBS was added to maintain a constant volume and sink condition. All experiments were performed in triplicate.

drug released in the first 3 hours: about 70%
SMILES: O=c1[nH]cc(F)c(=O)[nH]1 [fluorouracil]
